In ChEMBL document CHEMBL1140625 (Bioorg Med Chem, 2007) one finds IC50 data, which are given here for 2 molecules.

Some results are limits rather than exact numbers.

The target of this assay is Human immunodeficiency virus type 1 integrase (Human immunodeficiency virus 1, UniProt Q7ZJM1). In words: Inhibition of HIV1 integrase.
Human immunodeficiency virus type 1 integrase, sequence (Q7ZJM1 whole entry): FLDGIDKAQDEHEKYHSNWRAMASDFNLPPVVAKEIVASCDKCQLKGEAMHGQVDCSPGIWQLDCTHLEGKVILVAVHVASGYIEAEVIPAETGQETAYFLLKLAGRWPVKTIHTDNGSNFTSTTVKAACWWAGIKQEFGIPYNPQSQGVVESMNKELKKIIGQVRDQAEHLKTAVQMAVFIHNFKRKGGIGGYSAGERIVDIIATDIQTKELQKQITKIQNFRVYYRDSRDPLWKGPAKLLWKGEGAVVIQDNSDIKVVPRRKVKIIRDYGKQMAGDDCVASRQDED

The molecule `O=C(/C=C(\O)c1nc[nH]n1)c1ccc(Cc2ccc(F)cc2)[nH]1` displayed an IC50 of less than 1000 nM.

In turn, `O=C(/C=C(\O)c1cc[nH]c1)c1ccc(Cc2ccc(F)cc2)o1` came in with an IC50 of less than 1000 nM.
